From patent US7626077B2, “Glyphosate-resistant plants” (Mertec LLC, priority 2002, dated 2009)

Experiments:
[1] = system: cultured immature corn embryos transformed with SEQ ID NO: 6; assay: Selection of beamed corn embryos on glyphosate-containing medium; format: cell-based, Zea mays; settings: 540 mg/l glyphosate, DN62540RR medium, aerosol beam transformation with SEQ ID NO: 6
Description: The Cla I and Eco RV fragment (SEQ ID NO: 6) of HCEM was introduced into cultured immature corn embryos using an aerosol beam injector according to U.S. patent application Ser. No. 09/450,226. The Cia I-Eco RV fragment comprised the glyphosate-resistant EPSPS coding sequence.
Selection was carried out as follows: the beamed embryos were allowed to remain on DN62A0S20G medium for 5 days.
The beamed embryos were then transferred to DN62A100RR—a medium containing 100 mg/l glyphosate. After two 14-day passages on DN62A100RR, actively growing tissue is transferred to DN62A300RR medium which contains 300 mg/l (Table 3). After two 14-day passages on this medium, tissue was finally transferred to DN62540RR medium which contains 540 mg/i glyphosate (Table 3). […] Regeneration is carried out as described in U.S. patent application Ser. No. 09/450,226.

[2] = system: co-cultivated corn embryos; assay: Selection of Agrobacterium co-cultivated corn embryos on glyphosate-containing medium; format: cell-based, Zea mays; settings: 540 mg/l glyphosate, DN62540RR medium, Agrobacterium-mediated DNA delivery
Description: Transformation can also be accomplished using Agrobacterium-mediated DNA delivery. In this case, the transformation and regeneration are performed according to the methods as described in U.S. patent application Ser. No. 09/203,679, which is herein incorporated by reference. Briefly, after culturing on DN62A0S20GLC (Table 2) for five days, co-cultivated embryos are transferred to DN62ALC180RR medium which contains 180 mg/l glyphosate (Table 3). After two 14-day passages on this medium, actively growing tissue is transferred to DN62540RR medium containing 540 mg/l glyphosate (Table 3). […] Regeneration is carried out as described in U.S. Ser. No. 09/203,679.

[3] = system: regenerated soybean plants transformed with mutant epm1 and/or mutant epm2; assay: Glyphosate spray of regenerated transgenic soybean plants and progenies; format: in vivo; settings: sprayed at commercial rates, greenhouse
Description: The Bam HI/Sac II fragment (SEQ ID NO: 2) of epm1 vector and the Eco RI fragment (SEQ ID NO: 4) of epm2 vector were used to transform soybean embryogenic callus using an aerosol beam injector as described in U.S. patent application Ser. No. 09/450,226, which is incorporated herein by reference. These fragments comprised mutant epm1 and mutant epm2 which encode (putative) glyphosate-resistant EPSPSs. These fragments were used either alone or, preferably, together.
The transformed tissue is selected for glyphosate resistance using the method described below. First, the beamed embryogenic callus is maintained for one month on B1-30 3Co5My0.01PA medium.
The tissue is then transferred to the same medium but now containing 300 mg/l glyphosate. After a number of passages (up to 5 passages, each passage may last for about a month) on this latter medium, resistant clonal material may be identified. After an optional further few passages on B1-30 3Co5My0.01PA medium but containing 500 mg/l glyphosate, the growing tissue is transferred to a regeneration media as described in U.S. Pat. Ser. No. 09/450,226. Regenerated plants are transferred to pots in a greenhouse. […] Progenies are expected to 3:1 for glyphosate resistance as would be expected for Mendelian inheritance of a transgene.

O=C(O)CNCP(=O)(O)O [glyphosate, N-phosphonomethylglycine]
growth of stably transformed tissue on glyphosate medium [1]: continued growth
growth of stably transformed tissue on glyphosate medium [2]: continued growth
resistance of regenerated plants and progenies to glyphosate spray [3]: complete resistance
